From US20200206198A1, “CFTR CHANNEL ACTIVATOR FOR USE IN THE TREATMENT AND/OR PREVENTION OF GLUTEN SENSITIVITY CONDITIONS” (priority 2017, published 2020) come the findings set out here.

In assay [1] the target is T1, CFTR (Homo sapiens, UniProt P13569).
T1 construct: Immunoprecipitations of endogenous proteins were performed on 500 μg of lysates from Caco-2 cells; host or cells: Caco-2, T84
In words: CFTR channel function in intestinal epithelial cells (forskolin-induced Isc in Ussing chambers; SPQ iodide efflux). The assay is classed as cell-based. As to conditions: VX-770 10 μM, VX-532 20 μM, Genistein 10 μM; Caco-2 or T84 cells. As for the experimental part:
Human colon adenocarcinoma-derived Caco-2 and T84 cells (Barone, M. V. et al. 2014; Luciani, A. et al. 2010) were obtained from the ATCC. Cells were maintained in T25 flask in Modified Eagle Medium (MEM) for Caco-2, or Ham's F12+DMEM (1:1) for T84, supplemented with 10% fetal bovine serum (FBS), 2 mM Glutamine+1% Non Essential Amino Acids (NEAA) and the antibiotics penicillin\streptomycin (100 units/ml) (all reagents from Lonza). Caco-2 cells were grown in Transwells (Corning, 3470 or 3460) under the normal condition. Briefly, 8×10^4 or 5×10^5 cells were seeded in 6.5-mm diameter or 12-mm diameter, respectively, and grown until the RT reached 800 to 1,200 Ω·cm^2. Transwells with a pore size of 0.4 μm were used. Medium in both the apical and baso lateral chambers was changed every other day. Cells were treated with 20 μg/ml of either with the α-gliadin peptide comprising the P31-43 amino acid sequence of α-gliadin LGQQQPFPPQQPY (SEQ ID 1) (below referred to as P31-43), which is known to induce an enterocyte stress response (Meresse, B. et al.2009; Barone, M. V. et al. 2014; Luciani, A. et al. 2010), the T-cell activating α-gliadin peptide comprising the P57-68 amino acid sequence of α-gliadin (QLQPFPQPQLPY SEQ ID 2)) (below referred to as P57-68) (Maiuri, L., et al. 2003; Meresse, B. et al.2009; 30 Barone, M. V. et al. 2014), or the scrambled GAVAAVGVVAGA (SEQ ID 3) control peptide (below referred to as PGAV), or with different modified P31-43, either biotin-tagged or not, for different time points (from 1 h short challenge up to 24 h). Cells were also treated with 50 or 100 5 μg/ml of P57-68 or PGAV peptides for 3 h.
Caco-2 or T84 cells were also treated with: CFTR potentiators VX-770 (Ivacaftor) (10 μM) or VX-532 (20 μM) (Selleck chemicals) or Genistein (10 μM) (Verkman, A. S. et al. 2005; Jih, K. Y. et al. 2013) (Sigma-Aldrich) or in presence or absence of CFTR inhibitor172 (CFTRinh172, 20 μM).
Human colon adenocarcinoma-derived Caco-2 and T84 cells were obtained from the ATCC. Cells were maintained in T25 flask in Modified Eagle Medium (MEM) for Caco-2, or Ham's F12+DMEM (1:1) for T84, supplemented with 10% fetal bovine serum (FBS), 2 mM Glutamine+1% Non Essential Amino Acids (NEAA) and the antibiotics penicillin\streptomycin (100 units/ml) (all reagents from Lonza) (Luciani, A., et al. 2010. Cells were grown in Transwells (Corning, 3470 or 3460) under the normal condition (Luciani, A., et al. 2012). Briefly, 8×10^4 or 5×10^5 cells were seeded in 6.5-mm diameter or 12-mm diameter, respectively, and grown until the RT reached 800 to 1,200 Ω·cm2. Transwells with a pore size of 0.4 μm were used. Medium in both the apical and basolateral chambers was changed every other day. […]
On the technique in general: Caco-2 cells form a polarised layer with tight junctions and transporters.

The target of assay [2] is T2, PM-associated CFTR (Homo sapiens, UniProt P13569).
T2 construct: Immunoprecipitations of endogenous proteins were performed on 500 μg of lysates from Caco-2 cells; host or cells: Caco-2, T84
T2 sequence (P13569 whole entry): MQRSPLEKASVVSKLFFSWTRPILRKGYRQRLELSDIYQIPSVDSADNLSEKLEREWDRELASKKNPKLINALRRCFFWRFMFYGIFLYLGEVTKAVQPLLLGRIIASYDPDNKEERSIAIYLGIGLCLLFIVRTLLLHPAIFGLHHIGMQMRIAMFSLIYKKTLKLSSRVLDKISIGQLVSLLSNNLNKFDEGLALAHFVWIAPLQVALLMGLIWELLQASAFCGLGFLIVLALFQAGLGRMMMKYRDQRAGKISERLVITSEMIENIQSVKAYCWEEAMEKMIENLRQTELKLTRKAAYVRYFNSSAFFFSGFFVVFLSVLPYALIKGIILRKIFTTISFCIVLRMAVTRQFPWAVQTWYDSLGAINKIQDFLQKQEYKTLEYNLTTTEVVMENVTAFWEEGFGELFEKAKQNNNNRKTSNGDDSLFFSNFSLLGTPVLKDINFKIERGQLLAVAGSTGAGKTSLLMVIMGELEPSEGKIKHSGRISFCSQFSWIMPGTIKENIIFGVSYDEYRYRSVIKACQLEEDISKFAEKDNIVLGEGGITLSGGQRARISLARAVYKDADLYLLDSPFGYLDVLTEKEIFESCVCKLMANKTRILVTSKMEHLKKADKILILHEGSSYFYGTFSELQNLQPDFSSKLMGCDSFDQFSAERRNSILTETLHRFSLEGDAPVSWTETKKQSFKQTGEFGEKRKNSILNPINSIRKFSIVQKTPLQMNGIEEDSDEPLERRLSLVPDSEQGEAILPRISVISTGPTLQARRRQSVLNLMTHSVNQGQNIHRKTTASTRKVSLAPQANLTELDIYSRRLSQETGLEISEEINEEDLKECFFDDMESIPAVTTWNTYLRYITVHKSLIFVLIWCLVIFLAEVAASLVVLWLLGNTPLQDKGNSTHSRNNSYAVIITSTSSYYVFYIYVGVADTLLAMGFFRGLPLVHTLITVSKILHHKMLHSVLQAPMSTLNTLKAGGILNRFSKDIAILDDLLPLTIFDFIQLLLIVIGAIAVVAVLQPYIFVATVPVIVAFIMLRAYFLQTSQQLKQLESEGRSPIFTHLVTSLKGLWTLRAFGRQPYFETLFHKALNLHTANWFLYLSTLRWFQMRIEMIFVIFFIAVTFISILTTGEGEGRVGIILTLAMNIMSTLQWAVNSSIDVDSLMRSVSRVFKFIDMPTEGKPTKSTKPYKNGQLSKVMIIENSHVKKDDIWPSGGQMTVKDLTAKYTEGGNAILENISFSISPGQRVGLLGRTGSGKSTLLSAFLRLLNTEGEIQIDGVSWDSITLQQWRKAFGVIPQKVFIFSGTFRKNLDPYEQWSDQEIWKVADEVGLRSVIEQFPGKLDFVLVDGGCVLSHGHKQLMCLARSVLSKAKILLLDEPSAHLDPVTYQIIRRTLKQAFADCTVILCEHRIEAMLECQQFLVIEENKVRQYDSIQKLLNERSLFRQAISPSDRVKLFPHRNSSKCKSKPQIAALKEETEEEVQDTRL
The experiment in a line: CFTR plasma membrane disposal in Caco-2 cells (membrane fractions). The assay is classed as cell-based. As for the experimental part:
(§1) Human colon adenocarcinoma-derived Caco-2 and T84 cells were obtained from the ATCC. Cells were maintained in T25 flask in Modified Eagle Medium (MEM) for Caco-2, or Ham's F12+DMEM (1:1) for T84, supplemented with 10% fetal bovine serum (FBS), 2 mM Glutamine+1% Non Essential Amino Acids (NEAA) and the antibiotics penicillin\streptomycin (100 units/ml) (all reagents from Lonza) (Luciani, A., et al. 2010. Cells were grown in Transwells (Corning, 3470 or 3460) under the normal condition (Luciani, A., et al. 2012). Briefly, 8×10^4 or 5×10^5 cells were seeded in 6.5-mm diameter or 12-mm diameter, respectively, and grown until the RT reached 800 to 1,200 Ω·cm2. Transwells with a pore size of 0.4 μm were used. Medium in both the apical and basolateral chambers was changed every other day. Cells were treated with 20 μg/ml of either α-gliadin peptide P31-43 or […] or scrambled PGAV or modified P31-43 either biotin-tagged or not, for different time point (from 1 h short challenge up to 24 h). Cells were also treated with 50 or 100 μg/ml of P57-68 or PGAV peptides for 3 h. Caco-2 or T84 cells were also treated with: CFTR potentiators VX-770 (10 μM) or VX-532 (20 μM) (Selleck chemicals) or Genistein (10 μM) (Sigma-Aldrich) or in presence or absence of CFTR inhibitor172 (CFTRinh172, 20 μM) or 3-methyl-adenine (3-MA, 20 μM) (Calbiochem), Z-DON (20 nM, Zedira) or BAPTA-AM (10 μM, Calbiochem).
(§2) The whole lysate or membrane fraction proteins of cell lines and mice intestine homogenates were obtained from treated and untreated cells or mice as described. The equal amount of protein were resolved by SDS-PAGE gel and blotted with antibodies against: SQSTM1, (Sigma Aldrich, 108k4767) 1:1000, PPARγ (Santa Cruz Biotechnology, sc7273) 1:500, BECN1 (Abcam, ab58878) 1:1000, CFTR clone M3A7 (Abcam, ab4067) 1:500, phospho-ERK1/2 (php42/44, Cell Signaling Technology, #91101) 1:1000, UVRAG (Santa Cruz Biotechnology sc8215) 1:1000, NHERF-1 (BD, 611161) 1:1000, EZRIN (BD, 610603) 1:1000, hVps34 (SigmaV9764) 1:300, biotin (Abcam, ab1227) 1:2000, PKAr2a (BD, 610625) 1:500, Ubiquitin (Cell Signaling clone P4D1, #3936) 1:1000, CHIP (Calbiochem PC711) 1:500, Caspase-1 p10 (M-20) (Santa Cruz Biotechnology, sc-514) 1:200, NLRP3 (Abcam, ab4207), 1:500, IDO1 (monoclonal; cv152) 1:1000^[80], used as primary antibodies. Normalization was performed by probing the membrane with anti-β-actin (Cell Signaling, #4970) 1:1000, anti-Gapdh (Sigma-Aldrich, G8795) 1:1000 and anti-flottilin (Abcam ab15148) 1:1000 antibodies. Immunoprecipitations of endogenous proteins were performed on 500 μg of lysates from Caco-2 cells. The proteins were incubated for 12-18 h at 4° C. with 10 ug\ml of specific antibody followed by the addition of Protein A/G-agarose beads for 4 h at 4° C. The beads were then washed three times with lysis buffer and Laemmli's sample buffer was added to the samples. The membranes were then blotted with: CFTR clone CF3 (Abcam, ab2784) 1:1000, TG2 (clone CUB7402; NeoMarkers) 1:1000, CHIP (Calbiochem PC711) 1:500, Ubiquitin (Cell Signaling clone P4D1 3936), isopeptide (Abcam 422) 1:1000, PKAR2 (BD 610625) 1:500.
Protein from membrane fractionation were obtained as described. Cells were homogenized with a PotterElvehjem pestle and centrifuged at 2300×g for 15 min at 4° C. […]

Assay [3] relates to Caco-2 cells. The experiment in a line: Endosomal trafficking proteins in Caco-2 cells (immunoblot, endosomal fractions). The assay is classed as cell-based, human. As to conditions: lost if 3-MA or CFTR inhibitor added. As for the experimental part:
as §1
as §2, with “The beads were then washed three times with lysis buffer and Laemmli's sample buffer was added to the samples. The membranes were then blotted with: CFTR clone CF3 (Abcam, ab2784) 1:1000, TG2 (clone CUB7402; NeoMarkers) 1:1000, CHIP (Calbiochem PC711) 1:500, Ubiquitin (Cell Signaling clone P4D1 3936), isopeptide (Abcam 422) 1:1000, PKAR2 (BD 610625) 1:500.” left out

T1 sequence (P13569 whole entry): as above

Consider `Cc1ccc(O)c(-c2cc(-c3ccccc3)[nH]n2)c1` [VX-532, 4-Methyl-2-(5-phenyl-1Hpyrazol-3-yl)-phenol], for which the “prevention of P31-43 induced decrease of CFTR function” value in assay [1] was “Prevents P31-43 Induced Inhibition of CFTR Function”. Besides, the “effect on P31-43-induced reduction of PM-associated CFTR” value in assay [2] was “counteracted”. For the same compound, in assay [3], the “effect on P31-43-induced reduction of BECN1, hVps34, UVRAG, Rab5 and Rab7” value is “counteracted”.
